From ChEMBL document CHEMBL5143698, “Phenotypic screen identifies FOXO inhibitor to counteract maturation and promote expansion of human iPS cell-derived cardiomyocytes” (Bioorg Med Chem, 2022)
Activity calls are given as the source filed them. No cut-off for these calls is given here.

Experiments:
[1] = system: iPSC-CM; assay: Upregulation of TBX2 gene expression in human iPSC derived cardiomyocytes at 100 nM incubated for 5 days by qRT-PCR analysis; assay type: functional, cell-based; conditions: time 5.0 day
[2] = Cytotoxicity against human iPSC derived cardiomyocytes at >=500 nM incubated for 4 days without passaging by Hoechst staining based analysis; assay type: toxicity, cell-based; conditions: ipsc-cm, 96 h, 0.5 µM, time 4 day
[3] = system: iPSC-CM; assay: Downregulation of MLC2v protein level in human iPSC derived cardiomyocytes at 100 nM incubated for 3 weeks by immunofluorescence assay; assay type: functional, cell-based
[4] = system: iPSC-CM; assay: Downregulation of MYH7 gene expression in human iPSC derived cardiomyocytes at 100 nM incubated for 5 days by qRT-PCR analysis; assay type: functional, cell-based; conditions: time 5.0 day
[5] = system: iPSC-CM; assay: Downregulation of MYL2 gene expression in human iPSC derived cardiomyocytes at 100 nM incubated for 5 days by qRT-PCR analysis; assay type: functional, cell-based; conditions: time 5.0 day
[6] = system: iPSC-CM; assay: Downregulation of ANP protein level in human iPSC derived cardiomyocytes at 100 nM incubated for 3 weeks by immunofluorescence assay; assay type: functional, cell-based
[7] = biological target: Forkhead box protein O1 (Homo sapiens, UniProt Q12778); assay: Inhibition of FOXO-1 in human HepG2 cells incubated for 20 hrs by Renilla luciferase reporter gene assay; assay type: cell-based
[8] = (§1) Antiproliferative activity against human iPSC derived cardiomyocytes assessed as increase in cell number by measuring fold change after 3 passages at 100 nM incubated for 2 days by Hoechst staining based analysis; assay type: functional, iPSC-CM; conditions: time 2 day
[9] = system: iPSC-CM; assay: as §1; assay type: functional; conditions: time 2.0 day
[10] = system: iPSC-CM; assay: Downregulation of MYL2 gene expression in human iPSC derived cardiomyocytes measured after two passages following incubation for 5 days by qRT PCR analysis; assay type: functional, cell-based; conditions: dose 3-100 nM, time 5.0 day, DDE = dose-dependent effect
[11] = system: iPSC-CM; assay: Upregulation of MYH6 gene expression in human iPSC derived cardiomyocytes at 100 nM incubated for 5 days by qRT-PCR analysis; assay type: functional, cell-based; conditions: time 5.0 day
[12] = system: iPSC-CM; assay: Downregulation of NPPA gene expression in human iPSC derived cardiomyocytes measured after two passages following incubation for 5 days by qRT PCR analysis; assay type: functional, cell-based; conditions: dose 3-100 nM, time 5.0 day, DDE = dose-dependent effect
[13] = system: iPSC-CM; assay: Downregulation of NPPA gene expression in human iPSC derived cardiomyocytes at 100 nM incubated for 5 days by qRT-PCR analysis; assay type: functional, cell-based; conditions: time 5.0 day
[14] = system: iPSC-CM; assay: Downregulation of MYH7 gene expression in human iPSC derived cardiomyocytes measured after two passages following incubation for 5 days by qRT PCR analysis; assay type: functional, cell-based; conditions: dose 3-100 nM, time 5.0 day, DDE = dose-dependent effect
[15] = system: iPSC-CM; assay: Upregulation of IRX4 gene expression in human iPSC derived cardiomyocytes aat 100 nM incubated for 5 days by qRT-PCR analysis; assay type: functional, cell-based; conditions: time 5.0 day
[16] = Antiproliferative activity against human iPSC derived cardiomyocytes assessed as fold increase in cell number at 100 nM incubated for 4 days without passaging by Hoechst staining based analysis; assay type: functional, iPSC-CM; conditions: time 4 day

Chain of Forkhead box protein O1 (Q12778 whole entry): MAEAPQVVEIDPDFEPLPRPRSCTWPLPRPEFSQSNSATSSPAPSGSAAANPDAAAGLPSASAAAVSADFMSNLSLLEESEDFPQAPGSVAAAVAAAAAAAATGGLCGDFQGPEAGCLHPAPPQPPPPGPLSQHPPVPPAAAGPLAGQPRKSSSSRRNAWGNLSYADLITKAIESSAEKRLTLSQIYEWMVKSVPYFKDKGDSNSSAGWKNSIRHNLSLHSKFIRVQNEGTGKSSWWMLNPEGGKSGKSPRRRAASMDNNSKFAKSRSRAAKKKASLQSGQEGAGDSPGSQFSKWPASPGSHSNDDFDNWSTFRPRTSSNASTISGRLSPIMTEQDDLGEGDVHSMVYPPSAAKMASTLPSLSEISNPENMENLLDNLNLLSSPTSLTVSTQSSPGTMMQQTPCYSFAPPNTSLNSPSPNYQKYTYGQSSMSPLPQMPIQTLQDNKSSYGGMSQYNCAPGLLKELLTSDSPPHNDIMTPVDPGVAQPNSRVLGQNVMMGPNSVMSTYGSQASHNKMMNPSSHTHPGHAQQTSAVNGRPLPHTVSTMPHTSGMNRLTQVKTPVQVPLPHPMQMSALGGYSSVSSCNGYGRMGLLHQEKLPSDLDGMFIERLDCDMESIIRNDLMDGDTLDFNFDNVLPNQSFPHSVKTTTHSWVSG

- IC50 [7]: 33 nM
Compound: CCn1cc(C(=O)O)c(=O)c2c(N)c(F)c(NC3CCCCC3)cc21
- Activity [1]: Active
- Activity [2]: Toxic
- Activity [3]: Active
- Activity [4]: Active
- Activity [5]: Active
- Activity [6]: Active
- fold change (FC) [8]: >30
- Activity [9]: Active
- Activity [10]: Dde
- Activity [11]: Active
- Activity [12]: Dde
- Activity [13]: Active
- Activity [14]: Dde
- Activity [15]: Active
- fold change (FC) [16]: >3
